# Measured values taken from ChEMBL document CHEMBL1121820, “Synthesis and antitumor activity of simple vinyl and alpha-methylene-gamma-butyrolactone sulfonate esters and silyl enol ethers” (1981).
# Experiments:
# P388 [1] = assay: Compound was studied in P388 test system for the antitumor activity expressed as percent maximum life span of animals at a dose of 100 mg/kg; type: functional; settings: Mus musculus
# P388 [2] = assay: Compound was studied in P388 test system for the antitumor activity expressed as number of animals survived/Number of animals tested at a dose of 100 mg/kg; 6/6; type: functional, Mus musculus
# P388 [3] = assay: Compound was studied in P388 test system for the antitumor activity expressed as percent maximum life span of animals at a dose of 200 mg/kg; type: functional; settings: Mus musculus
# P388 [4] = assay: Compound was studied in P388 test system for the antitumor activity expressed as number of animals survived/Number of animals tested at a dose of 200 mg/kg; 5/6; type: functional, Mus musculus
# L1210 [5] = assay: Compound was studied in L1210 leukemia test system for the antitumor activity expressed as percent maximum life span of animals at dose of 25 mg/kg; type: functional; settings: Mus musculus
# L1210 [6] = assay: Compound was studied in L1210 leukemia test system for the antitumor activity expressed as number of animals survived/Number of animals tested at dose of 25 mg/kg; 5/6; type: functional, Mus musculus
# P388 [7] = assay: Compound was studied in P388 test system for the antitumor activity expressed as percent maximum life span of animals at dose of 50 mg/kg; type: functional; settings: Mus musculus
# P388 [8] = assay: Compound was studied in P388 test system for the antitumor activity expressed as number of animals survived/Number of animals tested at dose of 50 mg/kg; 6/6; type: functional, Mus musculus
# L1210 [9] = assay: Compound was studied in L1210 leukemia test system for the antitumor activity expressed as percent maximum life span of animals at dose of 22.5 mg/kg; type: functional; settings: Mus musculus
# L1210 [10] = assay: Compound was studied in L1210 leukemia test system for the antitumor activity expressed as number of animals survived/Number of animals tested at dose of 22.5 mg/kg; 6/6; type: functional, Mus musculus
# P388 [11] = assay: Compound was studied in P388 test system for the antitumor activity expressed as percent maximum life span of animals at dose of 120 mg/kg; type: functional; settings: Mus musculus
# P388 [12] = assay: Compound was studied in P388 test system for the antitumor activity expressed as number of animals survived/Number of animals tested at dose of 120 mg/kg; 6/6; type: functional, Mus musculus
# L1210 [13] = assay: Compound was studied in L1210 leukemia test system for the antitumor activity expressed as number animals survived/Number of animals tested at dose of 25 mg/kg; 5/6; type: functional, Mus musculus
# P388 [14] = assay: Compound was studied in P388 test system for the antitumor activity expressed as percent maximum life span of animals at dose of 37.5 mg/kg; type: functional; settings: Mus musculus
# P388 [15] = assay: Compound was studied in P388 test system for the antitumor activity expressed as number of animals survived/Number of animals tested at dose of 37.5 mg/kg; 6/6; type: functional, Mus musculus
# L1210 [16] = assay: Compound was studied in L1210 leukemia test system for the antitumor activity expressed as percent maximum life span of animals at dose of 200 mg/kg; type: functional; settings: Mus musculus
# L1210 [17] = assay: Compound was studied in L1210 leukemia test system for the antitumor activity expressed as number animals survived/Number of animals tested at dose of 200 mg/kg; 10/10; type: functional, Mus musculus
# Mus musculus [18] = assay: Compound was studied in CD8F test system for the antitumor activity expressed as percent maximum life span of animals at dose of 25 mg/kg; type: functional
# Mus musculus [19] = assay: Compound was studied in CD8F test system for the antitumor activity expressed as number of animals survived/Number of animals tested at dose of 25 mg/kg; 10/10
# P388 [20] = assay: Compound was studied in P388 test system for the antitumor activity expressed as percent maximum life span of animals at a dose of 50 mg/kg; type: functional; settings: Mus musculus
# P388 [21] = assay: Compound was studied in P388 test system for the antitumor activity expressed as number of animals survived/Number of animals tested at a dose of 50 mg/kg; 6/6; type: functional, Mus musculus
# L1210 [22] = assay: Compound was studied in L1210 leukemia test system for the antitumor activity expressed as number animals survived/Number of animals tested at dose of 200 mg/kg; 6/6; type: functional, Mus musculus
# P388 [23] = assay: Compound was studied in P388 test system for the antitumor activity expressed as number of animals survived/Number of animals tested at a dose of 200 mg/kg; 6/6; type: functional, Mus musculus
# P388 [24] = assay: Compound was studied in P388 test system for the antitumor activity expressed as percent maximum life span of animals at a dose of 400 mg/kg; type: functional; settings: Mus musculus
# P388 [25] = assay: Compound was studied in P388 test system for the antitumor activity expressed as number of animals survived/Number of animals tested at a dose of 400 mg/kg; 5/5; type: functional, Mus musculus
# P388 [26] = assay: Compound was studied in P388 test system for the antitumor activity expressed as number of animals survived/Number of animals tested at a dose of 100 mg/kg; 5/6; type: functional, Mus musculus
# B16 [27] = assay: Compound was studied in B16 test system for the antitumor activity expressed as percent maximum life span of animals at dose of 200 mg/kg; type: functional; settings: Mus musculus
# B16 [28] = assay: Compound was studied in B16 test system for the antitumor activity expressed as number of animals survived/Number of animals tested at dose of 200 mg/kg; […]; type: functional, Mus musculus
# L1210 [29] = assay: Compound was studied in L1210 leukemia test system for the antitumor activity expressed as percent maximum life span of animals at dose of 400 mg/kg; type: functional; settings: Mus musculus
# L1210 [30] = assay: Compound was studied in L1210 leukemia test system for the antitumor activity expressed as number animals survived/Number of animals tested at dose of 400 mg/kg; 6/6; type: functional, Mus musculus
# [31] = test system: Lewis lung carcinoma cell line; assay: Compound was studied in LL test system for the antitumor activity expressed as number of animals survived/Number of animals tested at dose of 12.5 mg/kg; 10/10; type: functional, Mus musculus
# [32] = test system: Lewis lung carcinoma cell line; assay: Compound was studied in LL test system for the antitumor activity expressed as percent maximum life span of animals at dose of 12.5 mg/kg; type: functional; settings: Mus musculus
# Mus musculus [33] = assay: Compound was studied in CD8F test system for the antitumor activity expressed as percent maximum life span of animals at dose of 250 mg/kg; type: functional
# Mus musculus [34] = assay: Compound was studied in CD8F test system for the antitumor activity expressed as number of animals survived/Number of animals tested at dose of 250 mg/kg; 10/10; type: functional
# P388 [35] = assay: Compound was studied in P388 test system for the antitumor activity expressed as percent maximum life span of animals; type: functional, Mus musculus
# P388 [36] = assay: Compound was studied in P388 test system for the antitumor activity expressed as number of animals survived/Number of animals tested at 200 mg/kg; 6/6; type: functional, Mus musculus
# L1210 [37] = assay: Compound was studied in L1210 leukemia test system for the antitumor activity expressed as percent maximum life span of animals at dose of 50 mg/kg; type: functional; settings: Mus musculus
# L1210 [38] = assay: Compound was studied in L1210 leukemia test system for the antitumor activity expressed as number animals survived/Number of animals tested at dose of 50 mg/kg; 6/6; type: functional, Mus musculus
# P388 [39] = assay: Compound was studied in P388 test system for the antitumor activity expressed as percent maximum life span of animals at dose of 25 mg/kg; type: functional; settings: Mus musculus
# P388 [40] = assay: Compound was studied in P388 test system for the antitumor activity expressed as number of animals survived/Number of animals tested at dose of 25 mg/kg; 6/6; type: functional, Mus musculus
structure (smiles),measurement,setting,value
O=S(=O)(OC(=C(c1ccccc1)c1ccccc1)c1ccccc1)C(F)(F)F,ILS at 100 mg/kg,P388 [1],16%
same,Ratio,P388 [2],6
O=S(=O)(O/C1=C/CCCCCC1)C(F)(F)F,ILS at 200 mg/kg,P388 [3],14%
same,ILS at 100 mg/kg,P388 [1],13%
same,Ratio,P388 [2],6
same,Ratio,P388 [4],5
CS(=O)(=O)O/C=C1\CCOC1=O,ILS at 25 mg/kg,L1210 [5],6%
same,Ratio,L1210 [6],5
same,ILS at 50 mg/kg,P388 [7],32%
same,Ratio,P388 [8],6
CS(=O)(=O)O/C=C1\C(=O)O[C@@H]2CCCCC12 (stereo partly specified),ILS at 22.5 mg/kg,L1210 [9],11%
same,Ratio,L1210 [10],6
same,ILS at 120 mg/kg,P388 [11],25%
same,Ratio,P388 [12],6
O=C1OCC/C1=C\OS(=O)(=O)C(F)(F)F,ILS at 25 mg/kg,L1210 [5],6%
same,Ratio,L1210 [13],5
same,ILS at 37.5 mg/kg,P388 [14],26%
same,Ratio,P388 [15],6
C[Si](C)(C)O/C=C1\CCCCC1=O,ILS at 200 mg/kg,L1210 [16],5%
same,Ratio,L1210 [17],10
same,ILS at 25 mg/kg,Mus musculus [18],21%
same,Ratio,P388 [8],6
same,Ratio,Mus musculus [19],1
CC(C)=C(C)OS(=O)(=O)C(F)(F)F,ILS at 100 mg/kg,P388 [1],14%
same,Ratio,P388 [2],6
O=S(=O)(OC1=CCCCC1)C(F)(F)F,ILS at 50 mg/kg,P388 [20],14%
same,Ratio,P388 [21],6
O=C1O[C@@H]2CCCCC2/C1=C/OS(=O)(=O)C(F)(F)F (stereo partly specified),ILS at 200 mg/kg,L1210 [16],17%
same,Ratio,L1210 [22],6
CC(C)=CO[Si](C)(C)C,ILS at 200 mg/kg,P388 [3],14%
same,Ratio,P388 [23],6
CCOC1=CC(=O)/C(=C/O[Si](C)(C)C)CC1,Ratio,P388 [8],6
O=S(=O)(OC1=CCCCCC1)C(F)(F)F,ILS at 400 mg/kg,P388 [24],15%
same,Ratio,P388 [25],5
O=S(=O)(OC=C1CCCCC1)C(F)(F)F,ILS at 200 mg/kg,P388 [3],12%
same,Ratio,P388 [4],5
C/C(=C\O[Si](C)(C)C)c1ccccc1,ILS at 100 mg/kg,P388 [1],8%
same,Ratio,P388 [26],5
CC(C)=COS(=O)(=O)C(F)(F)F,ILS at 50 mg/kg,P388 [20],-1%
same,Ratio,P388 [21],6
C[Si](C)(C)O/C=C1\CCOC1=O,ILS at 200 mg/kg,B16 [27],6%
same,Ratio,B16 [28],10
same,ILS at 400 mg/kg,L1210 [29],12%
same,Ratio,L1210 [30],6
same,Ratio,[31],10
same,ILS at 12.5 mg/kg,[32],16%
same,ILS at 250 mg/kg,Mus musculus [33],42%
same,Ratio,Mus musculus [34],10
same,ILS,P388 [35],25%
same,Ratio,P388 [36],6
C[Si](C)(C)OC=C1CCCCC1,ILS at 100 mg/kg,P388 [1],22%
same,Ratio,P388 [2],6
CC1(C)CC(=O)C=C(OS(=O)(=O)C(F)(F)F)C1,ILS at 50 mg/kg,L1210 [37],3%
same,Ratio,L1210 [38],6
same,ILS at 25 mg/kg,P388 [39],12%
same,Ratio,P388 [40],6
